The structures appear in SMILES notation. Values joined by “and” are separate entries in the source; they are usually repeats but may differ in a detail not shown here. Identical values can stand only once.

This note sets out measurements from publication PMC13224100, “Esterase-Responsive Mitochondria-Targeted Hydropersulfide Donors Mitigate Doxorubicin Cardiotoxicity While Preserving Anticancer Activity” (Angewandte Chemie (International ed. in English), 2025).

Data set [1] in a line: Aqueous stability of RSSH precursors in PBS. The class given is physicochemical. As for the experimental part:
We synthesized AST-2 as an esterase-sensitive RSSH donor via reaction of N-acetylpenicillamine methyl ester with methoxycarbonyl sulfenyl chloride in dichloromethane at 0 °C, affording the product in 72% yield (see Scheme S1). We first evaluated the aqueous stability of AST-2 in phosphate-buffered saline (PBS, pH 7.4) at 37 °C.
APT-1 was synthesized in 93% overall yield via a one-pot two-step sequence: N-acetylpenicillamine methyl ester was reacted with chlorocarbonylsulfenyl chloride to afford an S-perthiocarbonyl chloride intermediate, which was subsequently treated with 2-acetoxy-N-methylethan-1-aminium chloride in the presence of triethylamine (see Supporting Information).
We first evaluated the aqueous stability of the mitochondria-targeted analogs AST-2-TPP and APT-1-TPP. […] APT-1-TPP similarly retained excellent stability, with < 5% degradation over 41 h (Figure S1D).

Data set [2] deals with porcine liver esterase (PLE). Description: Esterase-mediated RSSH release kinetics with HPE-IAM trapping (UPLC-MS). Type of data set: biochemical. The note with it: precursor 25 μM, PLE 1 U mL^−1, HPE-IAM 250 μM, ammonium bicarbonate pH 7.4, DTPA, 37 °C; for half-life at 25 µM: pig, porcine liver esterase, read-out: t1/2 (min) Precursor consumption. As for the experimental part: We then assessed esterase-mediated activation of AST-2 by incubating it with porcine liver esterase (PLE) in the presence of β-(4-hydroxyphenyl)ethyl iodoacetamide (HPE-IAM, 10 equiv), a trapping agent for RSSH.[39] We anticipated that PLE-catalyzed hydrolysis would release RSSH, which would subsequently be trapped by HPE-IAM to generate RSS-HPE-AM (Figure 1a). […] In addition, a minor amount of dialkyl trisulfide formation is observed (Figures 1b and S5), which we attribute to the reaction of the released RSSH with the precursor AST-2.
Figure 1. a) Schematic of esterase-mediated RSSH release from AST-2 in the presence of the trapping agent HPE-IAM. b) Representative UPLC-MS traces showing time-dependent conversion of AST-2 (25 μM) to RSS-HPE-AM upon treatment with porcine liver esterase (1 U mL^−1) and HPE-IAM (250 μM) in 100 mM ammonium bicarbonate buffer (pH 7.4) containing the metal chelator diethylenetriaminepentaacetic acid (DTPA) (100 μM) at 37 °C. Aliquots were quenched with formic acid and analyzed by UPLC-MS. […] Rate constants and half-lives are reported as mean ± SD (n = 3). Curves represent best fits to single-exponential functions.
Figure 2. a) Reaction scheme showing esterase-triggered RSSH release from APT-1 via a two-step activation involving deacetylation and intramolecular cyclization. b) Representative UPLC-MS traces showing the time-dependent conversion of APT-1 (25 μM) to intermediate 1 and subsequent formation of RSS-HPE-AM in the presence of PLE (1 U mL^−1) and HPE-IAM (250 μM) at 37 °C. Asterisk indicates a minor impurity in the blank control. […] Rate constants and half-lives are reported as mean ± SD (n = 3). Curves represent best fits to single exponential functions as described in the text.
B. Kinetics of RSSH Generation.
Kinetics of RSSH generation were conducted as previously described.[5] Stock solutions of RSSH […]
precursor (10 mM in DMSO), HPE-IAM (100mM in DMSO), and porcine liver esterase (PLE, 2000 U/mL in ammonium bicarbonate buffer) were freshly prepared. RSSH precursors (25 μM) were […]
then immediately incubated with HPE-IAM (250 μM) and PLE (1 U/mL, from Sigma-Aldrich, […]
E3019-20KU, ≥ 15 U/mg protein) in ammonium bicarbonate buffer (100 mM, pH 7.4) containing diethylenetriaminepentaacetic acid (DTPA, 100 μM) at 37 °C. At the indicated time points, 500 μL […]
aliquots were withdrawn, quenched with concentrated formic acid (5 μL, […]), and […]
ultracentrifuged at 12,500 rpm for 5 min. The resulting supernatants were diluted with acetonitrile […]
(200 μL supernatant + 300 μL of acetonitrile) and analyzed by UPLC–MS using a Waters Acquity […]
(MSe, 10 scans/s). Chromatographic separation was performed on a C18 reverse-phase column […]
(Waters Acquity BEH C18, 2.1 × 50 mm, 1.7 μm) at 4 °C, with a flow rate of 0.3 mL/min and the […]
following gradient (v/v; water containing 0.1% formic acid as solvent A, acetonitrile as solvent B):
B; 8.5–10 min, return to 100% A. The injection volume was 5 μL. Mass spectral data were […]
processed using MassLynx 4.1, and extracted ion chromatograms (EICs) corresponding to the […]
exact masses of the RSSH precursor, intermediate, and the trapped product (RSS–HPE-AM) […]
were integrated to quantify substrate consumption and product formation. Kinetic data were fitted […]
to a single exponential curve using Origin. All experiments were performed in triplicate (n = 3), […]
and results are reported as mean ± standard deviation (SD).
HRMS Data for Compounds Formed during RSSH Generation from AST-2 […]
Figure S2. HRMS of the peak eluting at 5.6 min corresponding to AST-2.
Esterase-mediated hydrolysis of AST-2-TPP monitored by UPLC-MS […]
Figure S11. (A) Representative UPLC-MS traces showing esterase-mediated hydrolysis of AST-2-TPP (25 […]
μM) in the presence of HPE-IAM (250 μM) in ammonium bicarbonate buffer (pH 7.4, 100 mM) containing […]
the metal chelator DTPA (100 μM) at 37 °C. […]

Regarding `COC(=O)SSC(C)(C)C(NC(C)=O)C(=O)OC` (stereo not shown) [AST-2], the “decomposition (aqueous stability)” value in data set [1] (PBS pH 7.4, 37 °C, over 9 h) was determined as 22%. In addition, in data set [2], the half-life at 25 µM was 50.1 ± 1.8 min, the “first-order rate constant k (k1) of precursor consumption / deacetylation” value was 0.0139 ± 0.0005 min⁻¹ and the “first-order rate constant k (k2) of RSS-HPE-AM formation (RSSH release)” value (shortened to “first-order rate constant k (k2)”) was determined as 0.0144 ± 0.0006 min⁻¹.
For the compound `COC(=O)C(NC(C)=O)C(C)(C)SSC(=O)N(C)CCOC(C)=O` (stereo not shown) [APT-1], in data set [1] (PBS, 37 °C, over 48 h), the “decomposition (aqueous stability)” value came to 7%. Further, in data set [2], the half-life at 25 µM is 17.1 ± 0.4 min, the “first-order rate constant k (k1) of precursor consumption / deacetylation” value was determined as 0.0406 ± 0.0010 min⁻¹ and the “first-order rate constant k (k2)” value was determined as 0.0067 ± 0.0006 min⁻¹.
Take `COC(=O)SSC(C)(C)C(NC(C)=O)C(=O)N(C)CCC[P+](c1ccccc1)(c1ccccc1)c1ccccc1` (stereo not shown) [AST-2-TPP]: the “decomposition (aqueous stability)” value in data set [1] (PBS pH 7.4, 37 °C, over 7 h) was “ca. 20%”. For the same compound, in data set [2], the half-life at 25 µM amounted to 20.7 ± 0.6 min; the “first-order rate constant k (k1) of precursor consumption / deacetylation” value is 0.0335 ± 0.0010 min⁻¹; the “first-order rate constant k (k2)” value was 0.03467 ± 0.0028 min⁻¹ and 0.0347 ± 0.0028 min⁻¹.
Regarding `CC(=O)NC(C(=O)N(C)CCC[P+](c1ccccc1)(c1ccccc1)c1ccccc1)C(C)(C)SSC(=O)N(C)CCOC(C)=O` (stereo not shown) [APT-1-TPP], the “degradation (aqueous stability)” value in data set [1] (PBS pH 7.4, 37 °C, over 41 h) is under 5%. Also, in data set [2], the half-life at 25 µM is 5.2 ± 0.2 min; the “first-order rate constant k (k1) of precursor consumption / deacetylation” value was 0.1338 ± 0.0049 min⁻¹ and 0.134 ± 0.005 min⁻¹; the “first-order rate constant k (k2)” value came out at 0.0056 ± 0.0004 min⁻¹.
